The source made the active and inactive calls.
What was measured:
Assay type in all cases: functional, organism-based
Set-up in all cases: dose 40 mg/kg
Rattus norvegicus [1] = assay: Increase in acute stress induced adrenal gland weight in Sprague-Dawley rat at 40 mg/kg, po
Rattus norvegicus [2] = assay: Increase in acute stress induced plasma creatine levels in Sprague-Dawley rat at 40 mg/kg, po
Rattus norvegicus [3] = assay: Increase in acute stress induced plasma corticosterone levels in Sprague-Dawley rat at 40 mg/kg, po
Rattus norvegicus [4] = assay: Decrease in acute stress induced adrenal hypertrophy in Sprague-Dawley rat at 40 mg/kg, po
Rattus norvegicus [5] = assay: Increase in acute stress induced glucose levels in Sprague-Dawley rat at 40 mg/kg, po

Measured: Activity

CCCCCCCCCCCCCCCCCC(=O)OC[C@H](CO[C@@H]1O[C@H](CO[C@H]2O[C@H](CO)[C@H](O)[C@H](O)[C@H]2O)[C@H](O)[C@H](O)[C@H]1O)OC(=O)CCCCCCCCCCCCC
active: Rattus norvegicus [1] | Rattus norvegicus [2] | Rattus norvegicus [3]

C=CCc1ccc(O[C@@H]2O[C@H](CO)[C@@H](O)[C@H](O)[C@H]2O)c(O)c1
active: Rattus norvegicus [1] | Rattus norvegicus [2] | Rattus norvegicus [3] | Rattus norvegicus [4] | Rattus norvegicus [5]

CCCCCCCCCCCCCCCCCCCCCC(=O)O[C@H](COC(=O)CCCCCCCCCCCCCCC)CO[C@H]1O[C@H](CN)[C@@H](O)[C@H](O)[C@H]1O
active: Rattus norvegicus [1] | Rattus norvegicus [2] | Rattus norvegicus [3] | Rattus norvegicus [4] | Rattus norvegicus [5]

From ChEMBL document CHEMBL1141295, “Constituents of Ocimum sanctum with antistress activity” (J Nat Prod, 2007)
